Test results published in article PMC9862586, “3-(Adenosylthio)benzoic Acid Derivatives as SARS-CoV-2 Nsp14 Methyltransferase Inhibitors” (Molecules, 2023).

Tests used:
Assay in all cases: HTRF methyltransferase assay (SAM to SAH)
Assay type in all cases: biochemical
[1] = biological target: T1, SARS-CoV-2 nsp14 guanine-N7-methyltransferase (Severe acute respiratory syndrome coronavirus 2, UniProt P0DTD1)
T1 construct: gene rep
Text: HTRF methyltransferase assay (SAM to SAH) on SARS-CoV-2 nsp14 guanine-N7-methyltransferase

[2] = biological target: T2, human glycine N-methyltransferase (hGNMT) (Homo sapiens, UniProt Q14749)
T2 construct: gene GNMT; commercial protein (MyBioSource); homotetramer by known biology
T2 sequence (Q14749 2-295): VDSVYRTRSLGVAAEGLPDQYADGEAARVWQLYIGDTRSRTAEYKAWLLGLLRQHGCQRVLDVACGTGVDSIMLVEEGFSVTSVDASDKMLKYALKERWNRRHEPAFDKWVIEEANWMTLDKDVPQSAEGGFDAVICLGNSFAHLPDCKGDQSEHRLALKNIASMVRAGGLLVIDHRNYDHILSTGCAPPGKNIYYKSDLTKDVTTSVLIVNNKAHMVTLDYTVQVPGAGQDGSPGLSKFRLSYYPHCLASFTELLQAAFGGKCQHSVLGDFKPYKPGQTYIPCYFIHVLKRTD
Text: HTRF methyltransferase assay (SAM to SAH) on human glycine N-methyltransferase (hGNMT)

nsp16/nsp10 = biological target: T3, nsp16/nsp10 (Severe acute respiratory syndrome coronavirus 2, UniProt P0DTD1); settings: read-out: SARS-CoV-2 / nsp16/nsp10, IC50
T3 construct: gene rep
Text: HTRF methyltransferase assay (SAM to SAH) on nsp16/nsp10

Row | SMILES | IC50 [1] [nM] | IC50 [2] [nM] | IC50 (nsp16/nsp10) [nM]
1 | Nc1ncnc2c1ncn2[C@@H]1O[C@H](CSCc2ccc(-c3ccccc3)c(C(=O)O)c2)[C@@H](O)[C@H]1O [5r, 4-(((Adenosyl)thio)methyl)-[1,1′-biphenyl]-2-carboxylic acid] | 36 ± 1.8 | 10 ± 0.5 | 
2 | Nc1ncnc2c1ncn2[C@@H]1O[C@H](CSCc2cccc(O)c2)[C@@H](O)[C@H]1O [5e, 5′-(((3-Hydroxy)benzyl)thio)-5′-deoxyadenosine] |  | 600 ± 30 | 
3 | Nc1ncnc2c1ncn2[C@@H]1O[C@H](CSCc2ccc(C(=O)O)cc2)[C@@H](O)[C@H]1O [5a, 4-(((Adenosyl)thio)methyl)benzoic acid] | 500 ± 30 | 400 ± 40 | 1450 ± 70
4 | Nc1ncnc2c1ncn2[C@@H]1O[C@H](CSc2ccc(Br)c(C(=O)O)c2)[C@@H](O)[C@H]1O [10c, 2-Bromo-5-((adenosyl)thio)benzoic acid] | 24 ± 2 | 8.2 ± 0.4 | 
5 | Nc1ncnc2c1ncn2[C@@H]1O[C@H](CSCc2cc(C(=O)O)cc(-c3ccc(O)cc3)c2)[C@@H](O)[C@H]1O [5t, 5-(((Adenosyl)thio)methyl)-4′-hydroxy-[1,1′-biphenyl]-3-carboxylic acid] | 4.2 ± 0.2 | 4.5 ± 0.2 | 
6 | CS(=O)(=O)Nc1cccc(CSC[C@H]2O[C@@H](n3cnc4c(N)ncnc43)[C@H](O)[C@@H]2O)c1 [5c, N-(3-(((Adenosyl)thio)methyl)phenyl)methanesulfonamide] | 280 ± 20 | 250 ± 20 | 480 ± 30
7 | Nc1ncnc2c1ncn2[C@@H]1O[C@H](CSc2ccc(-c3ccccc3)c(C(=O)O)c2)[C@@H](O)[C@H]1O [10e, 4-((Adenosyl)thio)-[1,1′-biphenyl]-2-carboxylic acid] | 25 ± 2 | 24 ± 1 | 
8 | COC(=O)c1cccc(CSC[C@H]2O[C@@H](n3cnc4c(N)ncnc43)[C@H](O)[C@@H]2O)c1 [5k, Methyl 3-(((adenosyl)thio)methyl)benzoate] | 1350 ± 70 | 870 ± 50 | 
9 | Nc1ncnc2c1ncn2[C@@H]1O[C@H](CSCc2cccc(CC(=O)O)c2)[C@@H](O)[C@H]1O [5d, 2-(3-(((Adenosyl)thio)methyl)phenyl)acetic acid] | 680 ± 30 | 400 ± 30 | 1840 ± 90
10 | Nc1ncnc2c1ncn2[C@@H]1O[C@H](CSCc2cc(C(=O)O)cc(-c3ccccc3)c2)[C@@H](O)[C@H]1O [5p, 5-(((Adenosyl)thio)methyl)-[1,1′-biphenyl]-3-carboxylic acid] | 0.58 ± 0.03 | 0.97 ± 0.05 | 
11 | COc1ccc(SC[C@H]2O[C@@H](n3cnc4c(N)ncnc43)[C@H](O)[C@@H]2O)cc1C(=O)O [10d, 2-Methoxy-5-((adenosyl)thio)benzoic acid] | 17 ± 0.9 | 13 ± 0.6 | 
12 | CS(=O)(=O)c1cccc(CSC[C@H]2O[C@@H](n3cnc4c(N)ncnc43)[C@H](O)[C@@H]2O)c1 [5i, 5′-((3-(Methylsulfonyl)benzyl)thio)-5′-deoxyadenosine] | 270 ± 20 | 250 ± 20 | 
13 | CNS(=O)(=O)c1cccc(CSC[C@H]2O[C@@H](n3cnc4c(N)ncnc43)[C@H](O)[C@@H]2O)c1 [5j, 3-(((Adenosyl)thio)methyl)-N-methylbenzenesulfonamide] | 400 ± 19 | 350 ± 17 | 
14 | Nc1ncnc2c1ncn2[C@@H]1O[C@H](CSCc2cccc(CO)c2)[C@@H](O)[C@H]1O [5f, 5′-(((3-Hydroxymethyl)benzyl)thio)-5′-deoxyadenosine] | 740 ± 40 | 1200 ± 100 | 
15 | Nc1ncnc2c1ncn2[C@@H]1O[C@H](CSCc2ccc(Cl)c(C(=O)O)c2)[C@@H](O)[C@H]1O [5m, 5-(((Adenosyl)thio)methyl)-2-chlorobenzoic acid] | 7.7 ± 0.4 | 6.6 ± 0.3 | 
16 | Nc1ncnc2c1ncn2[C@@H]1O[C@H](CSc2ccc(Cl)c(C(=O)O)c2)[C@@H](O)[C@H]1O [10a, 2-Chloro-5-((adenosyl)thio)benzoic acid] | 20 ± 2 | 13 ± 2 | 30 ± 4
17 | Nc1ncnc2c1ncn2[C@@H]1O[C@H](CSCc2cccc(-c3nn[nH]n3)c2)[C@@H](O)[C@H]1O [5h, 5′-((3-(Tetrazolyl)benzyl)thio)-5′-deoxyadenosine] | 340 ± 12 | 220 ± 9 | 
18 | CNC(=O)c1cccc(CSC[C@H]2O[C@@H](n3cnc4c(N)ncnc43)[C@H](O)[C@@H]2O)c1 [5l, 3-(((Adenosyl)thio)methyl)-N-methylbenzamide] | 2790 ± 140 | 2780 ± 130 | 
19 | Nc1ncnc2c1ncn2[C@@H]1O[C@H](CSc2cc(C(=O)O)ccc2Cl)[C@@H](O)[C@H]1O [10b, 4-Chloro-5-((adenosyl)thio)benzoic acid] | 1300 ± 60 | 330 ± 20 | 2300 ± 120
20 | N#Cc1cccc(CSC[C@H]2O[C@@H](n3cnc4c(N)ncnc43)[C@H](O)[C@@H]2O)c1 [5g, 3-(((Adenosyl)thio)methyl)benzonitrile] | 351 ± 28 | 724 ± 58 | 
21 | Nc1ncnc2c1ncn2[C@@H]1O[C@H](CSCc2ccc(F)c(C(=O)O)c2)[C@@H](O)[C@H]1O [5n, 5-(((Adenosyl)thio)methyl)-2-fluorobenzoic acid] | 16 ± 2 | 6.1 ± 0.3 | 
22 | Nc1ncnc2c1ncn2[C@@H]1O[C@H](CSCc2cc(Cl)cc(C(=O)O)c2)[C@@H](O)[C@H]1O [5o, 3-(((Adenosyl)thio)methyl)-5-chlorobenzoic acid] | 24 ± 1.2 | 15 ± 0.7 | 
23 | Nc1ncnc2c1ncn2[C@@H]1O[C@H](CSc2ccc(C(=O)O)c(-c3ccccc3)c2)[C@@H](O)[C@H]1O [10f, 5-((Adenosyl)thio)-[1,1′-biphenyl]-2-carboxylic acid] | 420 ± 19 | 210 ± 10 | 
24 | Nc1ncnc2c1ncn2[C@@H]1O[C@H](CSCc2cc(C#CCO)cc(C(=O)O)c2)[C@@H](O)[C@H]1O [5v, 3-(((Adenosyl)thio)methyl)-5-(3-hydroxyprop-1-yn-1-yl)benzoic acid] | 12 ± 0.6 | 9.8 ± 0.5 | 
